Measured values: publication PMC5218480 (PLoS ONE, 2017)

Tested on: MV-4-11 cells
Assay: Gene expression microarray analysis (Affymetrix PrimeView) and GSEA
Format: cell-based, human
Parameters: RFU PODN (11730768_x_at) / Fold change /veh PODN (11730768_x_at) / RFU LINC00158 (11744669_a_at) / Fold change /veh LINC00158 (11744669_a_at) / RFU DUSP10 (11751237_a_at) / Fold change /veh DUSP10 (11751237_a_at) / RFU ID3 (11757404_x_at) / Fold change /veh ID3 (11757404_x_at) / RFU PLEKHG5 (11737974_s_at) / Fold change /veh PLEKHG5 (11737974_s_at) / RFU LRRC4B (11730491_at) / Fold change /veh LRRC4B (11730491_at) / RFU GIMAP4 (11747438_a_at) / Fold change /veh GIMAP4 (11747438_a_at) / RFU KRT8 (11758183_x_at) / Fold change /veh KRT8 (11758183_x_at) / RFU CNN1 (11734310_a_at) / Fold change /veh CNN1 (11734310_a_at) / RFU VPS37D (11726825_at) / Fold change /veh VPS37D (11726825_at) / RFU C10orf10 (11716522_x_at) / Fold change /veh C10orf10 (11716522_x_at) / RFU KIR2DL2 /// KIR2DL4 /// KIR2DL5A /// KIR2DL5B /// KIR2DS1 /// KIR2DS2 /// KIR2DS3 /// KIR2DS4 /// KIR3DL3 /// KIR3DL3 /// KIR3DS1 (11738374_at) / Fold change /veh KIR2DL2 /// KIR2DL4 /// KIR2DL5A /// KIR2DL5B /// KIR2DS1 /// KIR2DS2 /// KIR2DS3 /// KIR2DS4 /// KIR3DL3 /// KIR3DL3 /// KIR3DS1 (11738374_at) / RFU C1QL1 (11718748_at) / Fold change /veh C1QL1 (11718748_at) / RFU TMPRSS4 (11747572_a_at) / Fold change /veh TMPRSS4 (11747572_a_at) / RFU HAMP (11756126_x_at) / Fold change /veh HAMP (11756126_x_at) / RFU RNFT2 (11725882_a_at) / Fold change /veh RNFT2 (11725882_a_at) / RFU NR4A2 (11747474_a_at) / Fold change /veh NR4A2 (11747474_a_at) / RFU ABCC12 (11746883_a_at) / Fold change /veh ABCC12 (11746883_a_at) / RFU TMEM136 (11760407_x_at) / Fold change /veh TMEM136 (11760407_x_at) / RFU CLDN22 /// WWC2 (11732394_at) / Fold change /veh CLDN22 /// WWC2 (11732394_at) / RFU HLA-DPB1 (11760878_x_at) / Fold change /veh HLA-DPB1 (11760878_x_at) / RFU SPINT1 (11716480_a_at) / Fold change /veh SPINT1 (11716480_a_at) / RFU GAP43 (11754022_s_at) / Fold change /veh GAP43 (11754022_s_at) / RFU A4GNT (11735810_at) / Fold change /veh A4GNT (11735810_at) / RFU PRB3 (11715151_x_at) / Fold change /veh PRB3 (11715151_x_at) / RFU TUBB4B (11761932_at) / Fold change /veh TUBB4B (11761932_at) / RFU CAPN14 (11732068_a_at) / Fold change /veh CAPN14 (11732068_a_at) / RFU TMCC2 (11721928_a_at) / Fold change /veh TMCC2 (11721928_a_at) / RFU IRGQ (11745062_a_at) / Fold change /veh IRGQ (11745062_a_at) / RFU FAM174B (11720279_a_at) / Fold change /veh FAM174B (11720279_a_at) / RFU TMPRSS4 (11748680_a_at) / Fold change /veh TMPRSS4 (11748680_a_at) / RFU FAM212B (11763350_a_at) / Fold change /veh FAM212B (11763350_a_at) / RFU PLEKHG5 (11743358_a_at) / Fold change /veh PLEKHG5 (11743358_a_at) / RFU ZSCAN30 (11745921_a_at) / Fold change /veh ZSCAN30 (11745921_a_at) / RFU CMKLR1 (11741424_a_at) / Fold change /veh CMKLR1 (11741424_a_at) / RFU LOC101060620 /// MAPK8IP1 (11723275_at) / Fold change /veh LOC101060620 /// MAPK8IP1 (11723275_at) / RFU SPTSSB (11747773_x_at) / Fold change /veh SPTSSB (11747773_x_at) / RFU PRSS12 (11739890_at) / Fold change /veh PRSS12 (11739890_at) / RFU BIN1 (11741810_x_at) / Fold change /veh BIN1 (11741810_x_at) / RFU WNT11 (11732464_a_at) / Fold change /veh WNT11 (11732464_a_at) / RFU C10orf10 (11716521_a_at) / Fold change /veh C10orf10 (11716521_a_at) / RFU C5orf56 (11738089_at) / Fold change /veh C5orf56 (11738089_at) / RFU CYB561 (11721691_x_at) / Fold change /veh CYB561 (11721691_x_at) / RFU ANKRD19P (11752326_a_at) / Fold change /veh ANKRD19P (11752326_a_at) / RFU OR2T12 /// OR2T33 /// OR2T8 (11738714_s_at) / Fold change /veh OR2T12 /// OR2T33 /// OR2T8 (11738714_s_at) / RFU VCAN (11748164_a_at) / Fold change /veh VCAN (11748164_a_at) / RFU JSRP1 (11732532_at) / Fold change /veh JSRP1 (11732532_at) / RFU KRTAP10-11 (11738290_x_at) / Fold change /veh KRTAP10-11 (11738290_x_at) / RFU MYO3A (11730013_a_at) / Fold change /veh MYO3A (11730013_a_at) / RFU EBF3 (11725865_a_at) / Fold change /veh EBF3 (11725865_a_at) / RFU CAMK2N1 (11719241_x_at) / Fold change /veh CAMK2N1 (11719241_x_at) / RFU C5orf56 (11738088_a_at) / Fold change /veh C5orf56 (11738088_a_at) / RFU OLFML3 (11715873_a_at) / Fold change /veh OLFML3 (11715873_a_at) / RFU LOC100653217 /// NTM (11731650_a_at) / Fold change /veh LOC100653217 /// NTM (11731650_a_at) / RFU MAPK11 (11762145_a_at) / Fold change /veh MAPK11 (11762145_a_at) / RFU FIZ1 (11724087_x_at) / Fold change /veh FIZ1 (11724087_x_at) / RFU OASL (11726364_x_at) / Fold change /veh OASL (11726364_x_at) / RFU SOX15 (11748057_x_at) / Fold change /veh SOX15 (11748057_x_at) / RFU CD79A (11719716_a_at) / Fold change /veh CD79A (11719716_a_at) / RFU HIST1H1D (11736915_at) / Fold change /veh HIST1H1D (11736915_at) / RFU CASKIN2 (11723855_a_at) / Fold change /veh CASKIN2 (11723855_a_at) / RFU LOC730098 (11760151_x_at) / Fold change /veh LOC730098 (11760151_x_at) / RFU OR4N2 (11742367_at) / Fold change /veh OR4N2 (11742367_at) / RFU PRRT2 (11749266_a_at) / Fold change /veh PRRT2 (11749266_a_at) / RFU SNX32 (11753110_a_at) / Fold change /veh SNX32 (11753110_a_at) / RFU CDHR5 (11726645_a_at) / Fold change /veh CDHR5 (11726645_a_at) / RFU RCAN1 (11760418_a_at) / Fold change /veh RCAN1 (11760418_a_at) / RFU FAM167A (11723789_a_at) / Fold change /veh FAM167A (11723789_a_at) / RFU FAM26E (11764081_at) / Fold change /veh FAM26E (11764081_at) / RFU ISYNA1 (11749810_s_at) / Fold change /veh ISYNA1 (11749810_s_at) / RFU ACY1 (11761880_at) / Fold change /veh ACY1 (11761880_at) / RFU 11764098_at / Fold change /veh 11764098_at / RFU SAMD14 (11745864_x_at) / Fold change /veh SAMD14 (11745864_x_at) / RFU NPB (11741838_a_at) / Fold change /veh NPB (11741838_a_at) / RFU TMPRSS6 (11731388_a_at) / Fold change /veh TMPRSS6 (11731388_a_at) / RFU KRTAP10-2 (11738614_at) / Fold change /veh KRTAP10-2 (11738614_at) / RFU ARHGAP8 /// PRR5-ARHGAP8 (11727945_x_at) / Fold change /veh ARHGAP8 /// PRR5-ARHGAP8 (11727945_x_at) / RFU KRTAP5-7 /// NADSYN1 (11734609_at) / Fold change /veh KRTAP5-7 /// NADSYN1 (11734609_at) / RFU RASL12 (11751679_a_at) / Fold change /veh RASL12 (11751679_a_at) / RFU CDKN2B (11736163_a_at) / Fold change /veh CDKN2B (11736163_a_at) / RFU PRF1 (11729649_at) / Fold change /veh PRF1 (11729649_at) / RFU, ZNF638 /// ZNF638-IT1 / Fold change vs veh, ZNF638 /// ZNF638-IT1 / RFU, PANK3 / Fold change vs veh, PANK3 / RFU, SH3YL1 / Fold change vs veh, SH3YL1 / RFU, ZEB2 / Fold change vs veh, ZEB2 / RFU, NRIP1 / Fold change vs veh, NRIP1 / RFU, PTTG1IP / Fold change vs veh, PTTG1IP / RFU, CAPN2 / Fold change vs veh, CAPN2 / RFU, MED14 / Fold change vs veh, MED14 / RFU, SNORA58 / Fold change vs veh, SNORA58 / RFU, C1orf63 / Fold change vs veh, C1orf63 / RFU, LRRFIP1 / Fold change vs veh, LRRFIP1 / RFU, NDUFAF7 / Fold change vs veh, NDUFAF7 / RFU, SLC12A2 / Fold change vs veh, SLC12A2 / RFU, IBTK / Fold change vs veh, IBTK / RFU, ESF1 / Fold change vs veh, ESF1 / Fold change vs veh, TMEM50B / RFU, TAOK1 / Fold change vs veh, TAOK1 / RFU, ACBD3 / Fold change vs veh, ACBD3 / RFU, TMA16 / Fold change vs veh, TMA16 / RFU, RWDD3 / Fold change vs veh, RWDD3 / RFU, BCAT1 / Fold change vs veh, BCAT1 / RFU, EDEM3 / Fold change vs veh, EDEM3 / RFU, TMEM33 / Fold change vs veh, TMEM33 / RFU, WDR75 / Fold change vs veh, WDR75 / RFU, AHCTF1 / Fold change vs veh, AHCTF1 / RFU, TFRC / Fold change vs veh, TFRC / RFU, ZDHHC17 / Fold change vs veh, ZDHHC17 / RFU, NOM1 / Fold change vs veh, NOM1 / RFU, ARL8B / Fold change vs veh, ARL8B / RFU, ZBTB11 / Fold change vs veh, ZBTB11 / RFU, TAMM41 / Fold change vs veh, TAMM41 / RFU, KIAA1704 /// LOC100996395 / Fold change vs veh, KIAA1704 /// LOC100996395 / RFU, ING1 / Fold change vs veh, ING1 / RFU, TRMT61B / Fold change vs veh, TRMT61B / RFU, FUBP3 / Fold change vs veh, FUBP3 / RFU, TP53 / Fold change vs veh, TP53 / RFU, TNKS2 / Fold change vs veh, TNKS2 / RFU, ZFP14 / Fold change vs veh, ZFP14 / RFU, ACTR2 / Fold change vs veh, ACTR2 / RFU, PPP3R1 / Fold change vs veh, PPP3R1 / RFU, PIK3R1 / Fold change vs veh, PIK3R1 / RFU, HNRNPA1 / Fold change vs veh, HNRNPA1 / RFU, RNF170 / Fold change vs veh, RNF170 / RFU, ZNF28 / Fold change vs veh, ZNF28 / RFU, RNGTT / Fold change vs veh, RNGTT / RFU, OGT / Fold change vs veh, OGT / RFU, BRD1 / Fold change vs veh, BRD1 / RFU, MARS / Fold change vs veh, MARS / RFU, ZNF655 / Fold change vs veh, ZNF655 / RFU, FAHD1 / Fold change vs veh, FAHD1 / RFU, BDP1 / Fold change vs veh, BDP1 / RFU, LRRCC1 / Fold change vs veh, LRRCC1 / RFU, ARID1A / Fold change vs veh, ARID1A / RFU, ZNF146 / Fold change vs veh, ZNF146 / RFU, ZNF330 / Fold change vs veh, ZNF330 / RFU, GPN3 / Fold change vs veh, GPN3 / RFU, C9orf123 / Fold change vs veh, C9orf123 / RFU, N4BP2L2 / Fold change vs veh, N4BP2L2 / RFU, ARFIP1 / Fold change vs veh, ARFIP1 / RFU, FAM179B / Fold change vs veh, FAM179B / RFU, BCL10 / Fold change vs veh, BCL10 / RFU, UHRF1BP1L / Fold change vs veh, UHRF1BP1L / RFU, BET1 / Fold change vs veh, BET1 / RFU, CNOT2 / Fold change vs veh, CNOT2 / RFU, ZNF268 / Fold change vs veh, ZNF268 / Fold change vs veh, ZNF507 / RFU, DGCR2 / Fold change vs veh, DGCR2 / RFU, WDSUB1 / Fold change vs veh, WDSUB1 / Fold change vs veh, HSP90B1 /// MIR3652 / RFU, ADSS / Fold change vs veh, ADSS / RFU, GK / Fold change vs veh, GK / RFU, ZNF148 / Fold change vs veh, ZNF148 / RFU, TAF9 / Fold change vs veh, TAF9 / RFU, SLC1A5 / Fold change vs veh, SLC1A5 / RFU, SLMO2 / Fold change vs veh, SLMO2 / RFU, ABCC4 / Fold change vs veh, ABCC4 / RFU, LOC101060439 /// RAP1B / Fold change vs veh, LOC101060439 /// RAP1B / RFU, RFX7 / Fold change vs veh, RFX7 / RFU, GTPBP10 / Fold change vs veh, GTPBP10 / RFU, CNEP1R1 / Fold change vs veh, CNEP1R1 / RFU, BIVM-ERCC5 /// ERCC5 / Fold change vs veh, BIVM-ERCC5 /// ERCC5 / RFU, ILF3 / Fold change vs veh, ILF3 / RFU 11762660_at / Fold change /veh 11762660_at / RFU VCAN (11757783_s_at) / Fold change /veh VCAN (11757783_s_at) / RFU DDX43 (11728927_at) / Fold change /veh DDX43 (11728927_at) / RFU KRT8 (11758188_x_at) / Fold change /veh KRT8 (11758188_x_at) / RFU NKD1 (11759106_at) / Fold change /veh NKD1 (11759106_at) / RFU SRD5A1 (11742802_a_at) / Fold change /veh SRD5A1 (11742802_a_at) / RFU TPSAB1 /// TPSB2 (11721975_s_at) / Fold change /veh TPSAB1 /// TPSB2 (11721975_s_at) / RFU GSTM3 (11746129_a_at) / Fold change /veh GSTM3 (11746129_a_at) / RFU IL23R (11737362_x_at) / Fold change /veh IL23R (11737362_x_at) / RFU TMEM51 (11727254_a_at) / Fold change /veh TMEM51 (11727254_a_at) / RFU PIWIL2 (11732686_x_at) / Fold change /veh PIWIL2 (11732686_x_at) / RFU ORM1 (11744905_x_at) / Fold change /veh ORM1 (11744905_x_at) / RFU CCDC152 (11743942_at) / Fold change /veh CCDC152 (11743942_at) / RFU ECM1 (11717891_a_at) / Fold change /veh ECM1 (11717891_a_at) / RFU IL23R (11748794_a_at) / Fold change /veh IL23R (11748794_a_at) / RFU TNFAIP8L3 (11732012_x_at) / Fold change /veh TNFAIP8L3 (11732012_x_at) / RFU MBOAT4 (11741988_at) / Fold change /veh MBOAT4 (11741988_at) / RFU 11764193_at / Fold change /veh 11764193_at / RFU TMEM53 (11763286_at) / Fold change /veh TMEM53 (11763286_at) / RFU MAGEB2 (11727129_at) / Fold change /veh MAGEB2 (11727129_at) / RFU TMEM200A (11744735_a_at) / Fold change /veh TMEM200A (11744735_a_at) / RFU CCDC152 (11751479_a_at) / Fold change /veh CCDC152 (11751479_a_at) / RFU FAM211A (11726209_a_at) / Fold change /veh FAM211A (11726209_a_at) / RFU RGS16 (11746705_a_at) / Fold change /veh RGS16 (11746705_a_at) / RFU VCAN (11755009_s_at) / Fold change /veh VCAN (11755009_s_at) / RFU RHOB (11743442_s_at) / Fold change /veh RHOB (11743442_s_at) / RFU RGS16 (11720943_a_at) / Fold change /veh RGS16 (11720943_a_at) / RFU RGS16 (11720944_at) / Fold change /veh RGS16 (11720944_at) / RFU, VPS4B / Fold change vs veh, VPS4B / RFU, CREB1 / Fold change vs veh, CREB1 / RFU, DNAJC13 / Fold change vs veh, DNAJC13 / RFU, GNAQ / Fold change vs veh, GNAQ / RFU, CDK5R1 / Fold change vs veh, CDK5R1 / RFU, ZRANB3 / Fold change vs veh, ZRANB3 / RFU, CUL4A / Fold change vs veh, CUL4A / RFU, CCNY / Fold change vs veh, CCNY / RFU, UFL1 / Fold change vs veh, UFL1 / RFU, COG3 / Fold change vs veh, COG3 / RFU, DIAPH2 / Fold change vs veh, DIAPH2 / RFU, SKA2 / Fold change vs veh, SKA2 / RFU, AFF3 / Fold change vs veh, AFF3 / RFU, LMF1 / Fold change vs veh, LMF1 / RFU, IPO11 / Fold change vs veh, IPO11 / RFU, DFFB / Fold change vs veh, DFFB / RFU, FOXP1 / Fold change vs veh, FOXP1 / RFU, CARD8 / Fold change vs veh, CARD8 / RFU, STRN3 / Fold change vs veh, STRN3 / RFU, ADK / Fold change vs veh, ADK / RFU, RASSF2 / Fold change vs veh, RASSF2 / RFU, WIPF1 / Fold change vs veh, WIPF1 / RFU, LARP1B / Fold change vs veh, LARP1B / RFU, RASA1 / Fold change vs veh, RASA1 / RFU, RB1 / Fold change vs veh, RB1 / RFU, PPFIA1 / Fold change vs veh, PPFIA1 / RFU, MAT2A / Fold change vs veh, MAT2A / RFU, CCT5 / Fold change vs veh, CCT5 / RFU, WDR92 / Fold change vs veh, WDR92 / RFU, CUX1 / Fold change vs veh, CUX1 / RFU, TTC7A / Fold change vs veh, TTC7A / RFU, TMEM135 / Fold change vs veh, TMEM135 / RFU, DEPTOR / Fold change vs veh, DEPTOR / RFU, CPM / Fold change vs veh, CPM / RFU, DNAJB6 / Fold change vs veh, DNAJB6 / RFU, CACNA2D3 / Fold change vs veh, CACNA2D3 / RFU, DTX4 / Fold change vs veh, DTX4 / RFU, TFCP2 / Fold change vs veh, TFCP2 / RFU, GMCL1 /// GMCL1P1 / Fold change vs veh, GMCL1 /// GMCL1P1 / RFU, AEBP2 / Fold change vs veh, AEBP2 / RFU, SNHG1 /// SNORD22 /// SNORD25 /// SNORD26 /// SNORD27 /// SNORD28 /// SNORD29 /// SNORD31 / Fold change vs veh, SNHG1 /// SNORD22 /// SNORD25 /// SNORD26 /// SNORD27 /// SNORD28 /// SNORD29 /// SNORD31 / Fold change (Aza/veh), C12orf56 (ProbeSet 11735607_a_at) / Fold change (ACY-1035/veh), C12orf56 (ProbeSet 11735607_a_at) / Fold change (Aza/veh), FGFR1OP (ProbeSet 11751329_s_at) / Fold change (ACY-1035/veh), FGFR1OP (ProbeSet 11751329_s_at) / Fold change (Aza/veh), VPS36 (ProbeSet 11739960_a_at) / Fold change (ACY-1035/veh), VPS36 (ProbeSet 11739960_a_at) / RFU SYPL1 (11715823_x_at) / Fold change /veh SYPL1 (11715823_x_at) / RFU IGFBP7 (11715501_s_at) / Fold change /veh IGFBP7 (11715501_s_at) / RFU REEP3 (11722064_at) / Fold change /veh REEP3 (11722064_at) / RFU IGLL1 (11728026_x_at) / Fold change /veh IGLL1 (11728026_x_at): dose or concentration left out as unconfirmed
Settings: ProbeSet 11759095_at; LIST D

## Nc1ccc(-c2cccs2)cc1NC(=O)c1ccc2c(c1)cc(C1CC1)n2CCN1CCOCC1 [ACY-1035]
  RFU, GNAQ: 901.39 RFU
